How the values were obtained:
rats [1] = conditions: ref de Wied et al., 1987; cited from earlier work
BALB/cByJ mice [2] = assay: Three-chamber social choice test after subchronic regimen; assay type: in vivo, mouse
BALB/cByJ mice [3] = assay: Open field test for activity and exploration; assay type: in vivo, mouse
rats [4] = conditions: dependent on dose; ref Popik et al., 1996; cited from earlier work
BALB/cByJ mice [5] = assay: Marble-burying assay, BALB/cByJ; assay type: in vivo, mouse; conditions: acute IP, 50 min before test; Supplemental Fig. 3B, C

Substance: pGlu-Asn-Cyt-Pro-Leu-Gly-NH2 [OT(4-9)]
- potency on avoidance learning relative to oxytocin (rats [1]): greater potency than oxytocin itself on specific aspects of avoidance learning in rats
- entries, OT(4-9) 1.0 mg/kg (BALB/cByJ mice [2]; 1.0 mg/kg IP, subchronic, n=8): without changing entries during the test
- proximity to stranger mouse, OT(4-9) 1.0 mg/kg (BALB/cByJ mice [2]; 1.0 mg/kg IP, subchronic, n=8, main effect of side F(1,14)=6.84, p=0.0204): significant social preference for proximity to the stranger mouse
- time in side with stranger mouse, OT(4-9) 2.0 mg/kg, 24 hr and 12 days (BALB/cByJ mice [2]; 2.0 mg/kg IP, subchronic, 24-hr test F(1,21)=7.3, p=0.0133, 12-day test F(1,21)=4.85, p=0.039, n=8): significant preference for spending more time in the side with the stranger mouse at both time points
- proximity to stranger mouse, OT(4-9) 2.0 mg/kg, 12 days (BALB/cByJ mice [2]; 2.0 mg/kg IP, subchronic, 12 days, F(1,21)=7.02, p=0.015, n=8): significant preference for proximity to the stranger mouse 12 days following the final injection
- prosocial efficacy compared with oxytocin (BALB/cByJ mice [2]; OT(4-9) 2.0 mg/kg vs oxytocin 1.0 mg/kg, subchronic): prosocial efficacy similar to oxytocin
- dose dependence of sociability, OT(4-9) (BALB/cByJ mice [2]; subchronic IP): only the higher doses (1.0 and 2.0 mg/kg) leading to increased sociability
- entries during 3-chamber test (discussion) (BALB/cByJ mice [2]; subchronic IP): neither oxytocin nor OT(4-9) led to alterations in entries during the 3-chamber test
- activity or exploration in open field, OT(4-9) (BALB/cByJ mice [3]; OT(4-9) 2.0 mg/kg IP immediately before 2-hr test, versus vehicle, n=9): no significant effects on activity or exploration in the open field
- anxiolytic effects, acute OT(4-9) (BALB/cByJ mice [3]; acute, marble-burying assay and open field tests): lacked anxiolytic effects in the marble-burying assay and open field tests
- social recognition (rats [4]): oxytocin-like effects on social recognition in rats, dependent on dose
- digging responses in marble-burying assay, oxytocin metabolites (BALB/cByJ mice [5]): neither OT(4-9) nor OT(5-9) altered digging responses in the marble-burying assay

Reference: paper PMC7384330 (Neuropharmacology, 2018)
